From US8476253B2, “Amide derivative” (Daiichi Sankyo Company, Limited, priority 2009, dated 2013)
Where a name gives a salt, the structure may show the parent alone. Read-outs that look alike come from different tables or passages of the source.

What was measured:
human NK2 receptor = molecular target: T1, human NK2 receptor (Homo sapiens, UniProt P21452); assay: Test for binding to human NK2 receptor
T1 construct: expressed in transfected cells; host or cells: COS cells
T1 sequence (P21452 1-398): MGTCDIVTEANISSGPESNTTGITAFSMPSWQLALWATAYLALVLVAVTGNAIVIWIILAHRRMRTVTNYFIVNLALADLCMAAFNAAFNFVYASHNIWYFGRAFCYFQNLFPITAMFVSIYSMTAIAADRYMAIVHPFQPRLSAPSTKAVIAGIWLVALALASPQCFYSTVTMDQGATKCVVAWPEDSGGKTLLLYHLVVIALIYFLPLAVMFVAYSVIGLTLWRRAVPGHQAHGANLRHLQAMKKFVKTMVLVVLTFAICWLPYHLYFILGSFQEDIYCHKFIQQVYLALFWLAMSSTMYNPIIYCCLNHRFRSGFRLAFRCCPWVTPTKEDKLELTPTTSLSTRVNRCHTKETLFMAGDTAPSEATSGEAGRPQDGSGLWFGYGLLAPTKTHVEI
Outline: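 Radioligand binding with [^3H]SR 48968 on cryopreserved COS cells expressing human NK2 receptor (5.0×10^5 cells/mL), in 50 mM Tris-HCl pH 7.4 with BSA, MnCl2 and protease inhibitors. Bound label collected on PEI-treated GF/B filters, counted by liquid scintillation; Ki derived from IC50 and radioligand Kd.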

muscarine M3 receptor = assay: Effect of suppressing methacholine-induced airway contraction (in vivo, intratracheal administration); set-up: species or system guinea pig; conditions: guinea pigs, intratracheal administration 60 minutes before 30 μg/kg i.v. methacholine; AUC of increase in airway pressure over 10 minutes
Outline: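 Anesthetized, gallamine-paralysed, ventilated male Hartley guinea pigs (350–550 g); compound in 5% glucose given intratracheally 60 min before 30 μg/kg i.v. methacholine. Airway pressure AUC over 10 min scored; ID50 from inhibition versus 5% glucose vehicle group.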

neurokinin NK1 receptor = molecular target: T2, neurokinin NK1 receptor (Cavia porcellus, UniProt P30547); assay: Effect of suppressing substance P-induced airway contraction (in vivo, intratracheal administration); set-up: species or system guinea pig; conditions: guinea pigs, intratracheal administration 60 minutes before 20 μg/kg i.v. SP, AUC of increase in airway pressure over 10 minutes; for ED50: guinea pig, read-out: ID50 (the source's name)
T2 construct: Using healthy guinea pigs (body weight, 350 to 550 g; Hartley male guinea pigs); from tissue; host or cells: live anaesthetised Hartley male guinea pigs (airway, in vivo)
T2 sequence (P30547 whole entry): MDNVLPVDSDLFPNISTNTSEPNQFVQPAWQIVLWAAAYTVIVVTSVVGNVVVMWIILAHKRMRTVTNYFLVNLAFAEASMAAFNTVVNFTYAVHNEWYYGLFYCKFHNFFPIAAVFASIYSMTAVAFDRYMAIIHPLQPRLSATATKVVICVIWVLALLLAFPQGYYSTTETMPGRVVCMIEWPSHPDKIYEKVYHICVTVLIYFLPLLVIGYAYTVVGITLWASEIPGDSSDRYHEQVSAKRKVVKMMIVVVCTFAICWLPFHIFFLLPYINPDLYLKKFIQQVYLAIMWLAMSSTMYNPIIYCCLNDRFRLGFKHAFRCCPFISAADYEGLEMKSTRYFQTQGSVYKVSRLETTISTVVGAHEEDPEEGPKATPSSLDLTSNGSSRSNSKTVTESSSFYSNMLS
Outline: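 Anaesthetised, gallamine-paralysed, ventilated male Hartley guinea pigs; compound in 5% glucose given intratracheally 60 min before 20 μg/kg i.v. substance P. Airway-pressure increase AUC over 10 min, inhibition versus vehicle group, expressed as ID50.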

[1] = COS cells expressing human NK2 receptor, [3H]SR 48968 1 nM, Ki from IC50 and Kd, read-out: Ki

SMILES | Ki (human NK2 receptor) [nM] | ID50 (muscarine M3 receptor) [mg/kg] | ED50 (neurokinin NK1 receptor) [mg/kg] | Ki (human NK2 receptor; [1]) [nM] | ID50 (neurokinin NK1 receptor) [mg/kg]
Cc1cc(NCCCCCC(=O)N(C)CCN2CCC(OC(=O)Nc3ccccc3-c3ccccc3)CC2)ccc1C(=O)N(C)CCCN(C)C(=O)CO[C@H]1Cc2ccccc2C12CCN(CC[C@@]1(c3ccc(F)cc3)CN(C(=O)c3cc(C(F)(F)F)cc(C(F)(F)F)c3)CO1)CC2 [Example 18, 1-(2-{[6-({4-[{3-[({[(2S)-1′-{2-[(5R)-3-[3,5-Bis(trifluoromethyl)benzoyl]-5-(4-fluorophenyl)-1,3-oxazolidin-5-yl]ethyl}-2,3-dihydrospiro[indene-1,4′-piperidin]-2-yl]oxy}acetyl)(methyl)amino]propyl}(methyl)carbamoyl]-3-methylphenyl}amino)hexanoyl](methyl)amino}ethyl)piperidin-4-yl biphenyl-2-ylcarbamate trihydrochloride] | 0.42 | 0.0389 | 0.0614 | – | –
CN(CCN1CCC(OC(=O)Nc2ccccc2-c2ccccc2)CC1)C(=O)CCCCCNCc1ccc(C(=O)N(C)CCCN(C)C(=O)CO[C@H]2Cc3ccccc3C23CCN(CC[C@@]2(c4ccc(F)cc4)CN(C(=O)c4cc(C(F)(F)F)cc(C(F)(F)F)c4)CO2)CC3)s1 [Example 1, 1-{2-[{6-[({5-[{3-[({[(2S)-1′-{2-[(5R)-3-[3,5-Bis(trifluoromethyl)benzoyl]-5-(4-fluorophenyl)-1,3-oxazolidin-5-yl]ethyl}-2,3-dihydrospiro[indene-1,4′-piperidin]-2-yl]oxy}acetyl)(methyl)amino]propyl}(methyl)carbamoyl]-2-thienyl}methyl)amino]hexanoyl}(methyl)amino]ethyl}piperidin-4-yl biphenyl-2-ylcarbamate] | – | 0.0177 | 0.0147 | 0.57 | –
CN(CCN1CCC(OC(=O)Nc2ccccc2-c2ccccc2)CC1)C(=O)CCCCCN(C)c1ccc(C(=O)N(C)CCCN(C)C(=O)CO[C@H]2Cc3ccccc3C23CCN(CC[C@@]2(c4ccc(F)cc4)CN(C(=O)c4cc(C(F)(F)F)cc(C(F)(F)F)c4)CO2)CC3)cc1 [Example 76, 1-{2-[{6-[{4-[{3-[({[(2S)-1′-{2-[(5R)-3-[3,5-Bis(trifluoromethyl)benzoyl]-5-(4-fluorophenyl)-1,3-oxazolidin-5-yl]ethyl}-2,3-dihydrospiro[indene-1,4′-piperidin]-2-yl]oxy}acetyl)(methyl)amino]propyl}(methyl)carbamoyl]phenyl}(methyl)amino]hexanoyl}(methyl)amino]ethyl}piperidin-4-yl biphenyl-2-ylcarbamate] | – | 0.0292 | 0.0622 | 1 | –
CN(CCN1CCC(OC(=O)Nc2ccccc2-c2ccccc2)CC1)C(=O)CCCCN(C)c1ccc(C(=O)N(C)CCCN(C)C(=O)CO[C@H]2Cc3ccccc3C23CCN(CC[C@@]2(c4ccc(F)cc4)CN(C(=O)c4cc(C(F)(F)F)cc(C(F)(F)F)c4)CO2)CC3)cc1 [Example 38, 1-{2-[{5-[{4-[{3-[({[(2S)-1′-{2-[(5R)-3-[3,5-Bis(trifluoromethyl)benzoyl]-5-(4-fluorophenyl)-1,3-oxazolidin-5-yl]ethyl}-2,3-dihydrospiro[indene-1,4′-piperidin]-2-yl]oxy}acetyl)(methy)amino]propyl}(methyl)carbamoyl]phenyl}(methyl)amino]pentanoyl}(methyl)amino]ethyl}piperidin-4-yl biphenyl-2-ylcarbamate trihydrochloride] | – | 0.0257 | 0.0161 | 0.89 | –
CN(CCN1CCC(OC(=O)Nc2ccccc2-c2ccccc2)CC1)C(=O)CCCN(C)c1ccc(C(=O)N(C)CCCN(C)C(=O)CO[C@H]2Cc3ccccc3C23CCN(CC[C@@]2(c4ccc(F)cc4)CN(C(=O)c4cc(C(F)(F)F)cc(C(F)(F)F)c4)CO2)CC3)cc1 [Example 36, 1-{2-[{4-[{4-[{3-[({[(2S)-1′-{2-[(5R)-3-[3,5-Bis(trifluoromethyl)benzoyl]-5-(4-fluorophenyl)-1,3-oxazolidin-5-yl]ethyl}-2,3-dihydrospiro[indene-1,4′-piperidin]-2-yl]oxy}acetyl)(methyl)amino]propyl}(methyl)carbamoyl]phenyl}(methyl)amino]butanoyl}(methyl)amino]ethyl}piperidin-4-yl biphenyl-2-ylcarbamate trihydrochloride] | 0.96 | 0.0146 | 0.0236 | – | –
CN(CCN1CCC(OC(=O)Nc2ccccc2-c2ccccc2)CC1)C(=O)CCCCCNc1ncc(C(=O)N(C)CCCN(C)C(=O)CO[C@H]2Cc3ccccc3C23CCN(CC[C@@]2(c4ccc(F)cc4)CN(C(=O)c4cc(C(F)(F)F)cc(C(F)(F)F)c4)CO2)CC3)cn1 [Example 14, 1-(2-{[6-({5-[{3-[({[(2S)-1′-{2-[(5R)-3-[3,5-Bis(trifluoromethyl)benzoyl]-5-(4-fluorophenyl)-1,3-oxazolidin-5-yl]ethyl}-2,3-dihydrospiro[indene-1,4′-piperidin]-2-yl]oxy}acetyl)(methyl)amino]propyl}(methyl)carbamoyl]pyrimidin-2-yl}amino)hexanoyl](methyl)amino}ethyl)piperidin-4-yl biphenyl-2-ylcarbamate trihydrochloride] | 0.67 | 0.0129 | 0.0172 | – | –
CN(CCN1CCC(OC(=O)Nc2ccccc2-c2ccccc2)CC1)C(=O)CCCCCNc1ccc(C(=O)N(C)CCCN(C)C(=O)CO[C@H]2Cc3ccccc3C23CCN(CC[C@@]2(c4ccc(F)cc4)CN(C(=O)c4cc(C(F)(F)F)cc(C(F)(F)F)c4)CO2)CC3)nc1 [Example 9, 1-(2-{[6-({6-[{3-[({[(2S)-1′-{2-[(5R)-3-[3,5-Bis(trifluoromethyl)benzoyl]-5-(4-fluorophenyl)-1,3-oxazolidin-5-yl]ethyl}-2,3-dihydrospiro[indene-1,4′-piperidin]-2-yl]oxy}acetyl)(methyl)amino]propyl}(methyl)carbamoyl]pyridin-3-yl}amino)hexanoyl](methyl)amino}ethyl)piperidin-4-yl biphenyl-2-ylcarbamate] | – | 0.0164 | 0.0348 | 0.66 | –
CN(CCN1CCC(OC(=O)Nc2ccccc2-c2ccccc2)CC1)C(=O)CCCCCNc1nc2ccc(C(=O)N(C)CCCN(C)C(=O)CO[C@H]3Cc4ccccc4C34CCN(CC[C@@]3(c5ccc(F)cc5)CN(C(=O)c5cc(C(F)(F)F)cc(C(F)(F)F)c5)CO3)CC4)cc2s1 [Example 93, 1-(2-{[6-({6-[{3-[({[(2S)-1′-{2-[(5R)-3-[3,5-Bis(trifluoromethyl)benzoyl]-5-(4-fluorophenyl)-1,3-oxazolidin-5-yl]ethyl}-2,3-dihydrospiro[indene-1,4′-piperidin]-2-yl]oxy}acetyl)(methy)amino]propyl}(methyl)carbamoyl]-1,3-benzothiazol-2-yl}amino)hexanoyl](methyl)amino}ethyl)piperidin-4-yl biphenyl-2-ylcarbamate] | – | 0.0372 | – | 0.55 | 0.0416
CN(CCN1CCC(OC(=O)Nc2ccccc2-c2ccccc2)CC1)C(=O)CCOCCNc1ccc(C(=O)N(C)CCCN(C)C(=O)CO[C@H]2Cc3ccccc3C23CCN(CC[C@@]2(c4ccc(F)cc4)CN(C(=O)c4cc(C(F)(F)F)cc(C(F)(F)F)c4)CO2)CC3)cc1 [Example 29, 1-{2-[{3-[2-({4-[{3-[({[(2S)-1′-{2-[(5R)-3-[3,5-Bis(trifluoromethyl)benzoyl]-5-(4-fluorophenyl)-1,3-oxazolidin-5-yl]ethyl}-2,3-dihydrospiro[indene-1,4′-piperidin]-2-yl]oxy}acetyl)(methy)amino]propyl}(methyl)carbamoyl]phenyl}amino)ethoxy]propanoyl}(methyl)amino]ethyl}piperidin-4-yl biphenyl-2-ylcarbamate trihydrochloride] | – | 0.0266 | 0.0292 | 0.76 | –
CN(CCN1CCC(OC(=O)Nc2ccccc2-c2ccccc2)CC1)C(=O)CCN(C)c1ccc(C(=O)N(C)CCCN(C)C(=O)CO[C@H]2Cc3ccccc3C23CCN(CC[C@@]2(c4ccc(F)cc4)CN(C(=O)c4cc(C(F)(F)F)cc(C(F)(F)F)c4)CO2)CC3)cc1 [Example 95, 1-{2-[(N-{4-[{3-[({[(2S)-1′-{2-[(5R)-3-[3,5-Bis(trifluoromethyl)benzoyl]-5-(4-fluorophenyl)-1,3-oxazolidin-5-yl]ethyl}-2,3-dihydrospiro[indene-1,4′-piperidin]-2-yl]oxy}acetyl)(methy)amino]propyl}(methyl)carbamoyl]phenyl}-N-methyl-β-alanyl)(methyl)amino]ethyl}piperidin-4-yl biphenyl-2-ylcarbamate] | – | 0.0462 | 0.0225 | 0.81 | –
